Laboratory results reported in ChEMBL document CHEMBL1201862, “PubChem BioAssay data set” (2004).
Activity calls are given as the source filed them.

Experiments:
[1] = biological target: T1, Calpain-2 catalytic subunit (Sus scrofa, UniProt P43367); experiment: m-calpain protease blockers, concentration series – biochemical, fluorogenic peptide substrate, dose response (AID 1420); format: functional
T1 sequence (P43367 whole entry): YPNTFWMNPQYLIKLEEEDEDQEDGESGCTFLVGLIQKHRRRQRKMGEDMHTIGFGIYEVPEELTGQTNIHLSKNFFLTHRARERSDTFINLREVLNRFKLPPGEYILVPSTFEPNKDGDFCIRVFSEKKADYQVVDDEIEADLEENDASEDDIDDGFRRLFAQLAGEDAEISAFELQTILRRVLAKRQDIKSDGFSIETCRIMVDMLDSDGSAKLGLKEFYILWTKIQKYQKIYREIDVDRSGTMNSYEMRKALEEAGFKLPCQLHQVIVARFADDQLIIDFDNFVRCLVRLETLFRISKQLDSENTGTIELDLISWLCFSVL

[2] = biological target: T2, Protein skinhead-1 (Caenorhabditis elegans, UniProt P34707); format: functional
T2 sequence (P34707 whole entry): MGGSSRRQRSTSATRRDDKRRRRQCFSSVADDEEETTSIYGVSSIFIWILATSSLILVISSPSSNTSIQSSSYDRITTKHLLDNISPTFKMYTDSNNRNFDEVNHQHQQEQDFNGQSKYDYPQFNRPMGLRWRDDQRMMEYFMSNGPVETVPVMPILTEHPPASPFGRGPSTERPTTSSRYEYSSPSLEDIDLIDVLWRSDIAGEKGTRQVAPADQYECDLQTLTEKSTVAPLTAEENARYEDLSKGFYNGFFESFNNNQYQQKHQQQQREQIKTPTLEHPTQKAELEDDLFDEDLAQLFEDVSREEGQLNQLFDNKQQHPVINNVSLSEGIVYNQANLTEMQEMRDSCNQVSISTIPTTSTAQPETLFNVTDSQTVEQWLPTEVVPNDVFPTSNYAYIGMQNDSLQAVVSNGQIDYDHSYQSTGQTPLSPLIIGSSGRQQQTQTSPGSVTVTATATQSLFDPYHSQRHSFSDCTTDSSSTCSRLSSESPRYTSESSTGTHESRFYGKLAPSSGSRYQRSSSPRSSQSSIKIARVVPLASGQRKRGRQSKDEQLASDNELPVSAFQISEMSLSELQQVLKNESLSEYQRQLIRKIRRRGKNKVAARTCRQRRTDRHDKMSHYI

[3] = microbe, parasite or virus in culture; format: functional; details: Mycobacterium tuberculosis
[4] = Trypanosoma cruzi growth suppression in host cells – NIH3T3 host cells, beta-gal luminescence, confirmation (AID 2044); format: functional, cell-based;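 also: intracellular parasites grown in NIH/3T3 mouse fibroblasts as host cells; luminescent beta-galactosidase reporter signal from transgenic T. cruzi replicating inside host cells; inhibitors lower the luminescence signal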
[5] = NIH3T3 cell viability loss – ATP luminescence, mouse fibroblasts, counter-screen, dose response (AID 2010); format: functional, cell-based;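 also: cells exposed to compound for about 90 hours before reading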
[6] = system: H9c2; experiment: cells; format: functional, cell-based; details: Rattus norvegicus, H9c2, Myocardium;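 also: confirmatory concentration-response retest of ultra-high-throughput screening hits for modulation of myocardial damage; cell death induced by hydrogen peroxide oxidative stress; compound pretreatment for 60 min then peroxide exposure for 2 h; potency is for protecting the cells against peroxide damage rather than for killing them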
[7] = biological target: Paired box protein Pax-8 (Homo sapiens, UniProt Q06710); experiment: PAX8 transcriptional activity inhibition in RMG-I – RMG-I cells, luciferase, cherry-pick, dose response (AID 687027); format: functional, cell-based;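 also: luciferase reporter driven by Pax8 target thyroperoxidase promoter measured by SteadyGlo luminescence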
[8] = system: INS1; experiment: INS-1E survival protection against cytokine death – cell-based, luminescence, retest, dose response (AID 449756); format: functional; details: Rattus norvegicus;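 also: cell death triggered by IL-1 beta plus TNF-alpha plus IFN-gamma mixture; protective hits raise ATP signal compared with cytokine alone wells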
[9] = biological target: T3, Microphthalmia-associated transcription factor (Homo sapiens, UniProt O75030); experiment: reducers of TRPM1 reporter luminescence, concentration series – cell-based, SK-MEL-5, cherry-picked, set 3, MITF inhibitor project, dose response (AID 493073); format: functional;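 also: SK-MEL-5 melanoma cells with luciferase driven by the MITF target TRPM1 promoter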
T3 sequence (O75030 whole entry): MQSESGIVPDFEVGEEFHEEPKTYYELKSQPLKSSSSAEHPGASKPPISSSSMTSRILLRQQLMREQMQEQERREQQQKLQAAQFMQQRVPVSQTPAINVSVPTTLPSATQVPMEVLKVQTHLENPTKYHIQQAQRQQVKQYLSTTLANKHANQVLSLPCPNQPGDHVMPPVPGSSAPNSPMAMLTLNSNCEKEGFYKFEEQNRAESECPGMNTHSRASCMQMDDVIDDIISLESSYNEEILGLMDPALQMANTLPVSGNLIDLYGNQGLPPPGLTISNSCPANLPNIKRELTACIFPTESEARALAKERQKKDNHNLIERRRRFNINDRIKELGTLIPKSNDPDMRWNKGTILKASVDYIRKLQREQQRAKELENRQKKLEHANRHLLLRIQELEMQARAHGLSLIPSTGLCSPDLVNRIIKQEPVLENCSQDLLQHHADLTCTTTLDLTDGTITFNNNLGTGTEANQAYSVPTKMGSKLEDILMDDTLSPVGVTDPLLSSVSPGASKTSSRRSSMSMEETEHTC

[10] = biological target: T4, Heat shock factor protein 1 (Mus musculus, UniProt P38532); experiment: decrease of HSF1-responsive luciferase luminescence – cell-based, NIH3T3, dose retest, confirmation (AID 2382); format: functional;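 also: NIH3T3 fibroblasts with HSF1-driven luciferase reporter stressed by proteasome inhibitor MG132; luminescence from HSF1-driven luciferase expression after 8 hours of MG132 stress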
T4 sequence (P38532 whole entry): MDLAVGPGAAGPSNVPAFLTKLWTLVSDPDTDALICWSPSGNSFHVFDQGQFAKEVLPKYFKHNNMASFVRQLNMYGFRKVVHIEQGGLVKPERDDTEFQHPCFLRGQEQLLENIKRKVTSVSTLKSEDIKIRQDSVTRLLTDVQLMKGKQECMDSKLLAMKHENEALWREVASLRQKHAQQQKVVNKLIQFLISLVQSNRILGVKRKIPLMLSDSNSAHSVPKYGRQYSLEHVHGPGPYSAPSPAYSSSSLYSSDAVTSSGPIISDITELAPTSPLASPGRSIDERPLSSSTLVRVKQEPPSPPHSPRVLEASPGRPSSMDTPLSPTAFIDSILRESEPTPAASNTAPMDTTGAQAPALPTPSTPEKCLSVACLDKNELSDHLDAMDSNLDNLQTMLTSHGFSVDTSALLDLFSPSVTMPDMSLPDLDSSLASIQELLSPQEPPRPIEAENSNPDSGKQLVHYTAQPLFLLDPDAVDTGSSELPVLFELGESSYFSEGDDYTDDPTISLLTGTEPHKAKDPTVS

[11] = biological target: Cytochrome P450 2C9 (Homo sapiens, UniProt P11712)
[12] = biological target: Cytochrome P450 2D6 (Homo sapiens, UniProt P10635);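 also: CYP2D6 member of a cytochrome P450 panel assay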
[13] = biological target: Cytochrome P450 2C19 (Homo sapiens, UniProt P33261); experiment: Cytochrome panel assay with activity outcomes. Panel member name: p450-cyp2c19 Compounds with AC50 equal or less than 10 uM are considered active; format: functional; details: read-out: AC50
[14] = biological target: T5, Corticotropin-releasing factor receptor 2/Corticotropin-releasing factor-binding protein (Homo sapiens, UniProt P24387+Q13324); experiment: activators of CRF receptor 2 with binding protein – uHTS hits, confirmation (AID 602473); format: functional; details: read-out: EC50_Mean
T5 sequence (Q13324 whole entry): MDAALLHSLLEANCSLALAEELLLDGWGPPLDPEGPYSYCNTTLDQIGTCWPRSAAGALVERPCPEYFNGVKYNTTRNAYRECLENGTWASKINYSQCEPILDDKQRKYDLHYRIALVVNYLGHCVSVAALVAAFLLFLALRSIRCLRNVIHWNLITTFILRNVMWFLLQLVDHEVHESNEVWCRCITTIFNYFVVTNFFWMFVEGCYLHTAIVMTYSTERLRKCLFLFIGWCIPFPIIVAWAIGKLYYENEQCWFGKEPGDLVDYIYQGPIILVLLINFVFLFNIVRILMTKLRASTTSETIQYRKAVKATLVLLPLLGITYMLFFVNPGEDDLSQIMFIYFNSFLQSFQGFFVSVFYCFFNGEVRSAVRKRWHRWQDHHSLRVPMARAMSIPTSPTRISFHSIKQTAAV
T5 sequence (P24387 whole entry): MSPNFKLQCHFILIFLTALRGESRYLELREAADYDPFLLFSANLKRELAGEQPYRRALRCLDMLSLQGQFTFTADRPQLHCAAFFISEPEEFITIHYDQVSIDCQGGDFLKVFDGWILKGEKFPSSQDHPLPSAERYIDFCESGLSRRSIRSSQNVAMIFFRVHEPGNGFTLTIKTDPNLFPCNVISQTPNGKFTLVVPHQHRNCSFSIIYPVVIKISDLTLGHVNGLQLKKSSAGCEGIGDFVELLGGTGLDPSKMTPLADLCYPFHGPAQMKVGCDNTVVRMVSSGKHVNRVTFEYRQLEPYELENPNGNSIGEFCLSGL

[15] = system: BJ; experiment: BJ-TERT fibroblast viability loss – cell-based, RAS-independent, luminescence, dose response (AID 1933); format: functional; details: Homo sapiens
[16] = DRD fibroblast viability loss – cell-based, non-viral oncogenic, luminescence, dose response (AID 1934); format: functional; details: Homo sapiens
[17] = system: BJ; experiment: cells; format: functional, cell-based; details: Homo sapiens
[18] = system: BJ; experiment: BJ-TERT-LT-ST fibroblast viability loss – cell-based, RAS-independent, luminescence, dose response (AID 1935); format: functional; details: Homo sapiens;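 also: BJ fibroblasts immortalized with TERT plus LT and ST oncogenes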

Sequence of Cytochrome P450 2C9 (P11712 whole entry): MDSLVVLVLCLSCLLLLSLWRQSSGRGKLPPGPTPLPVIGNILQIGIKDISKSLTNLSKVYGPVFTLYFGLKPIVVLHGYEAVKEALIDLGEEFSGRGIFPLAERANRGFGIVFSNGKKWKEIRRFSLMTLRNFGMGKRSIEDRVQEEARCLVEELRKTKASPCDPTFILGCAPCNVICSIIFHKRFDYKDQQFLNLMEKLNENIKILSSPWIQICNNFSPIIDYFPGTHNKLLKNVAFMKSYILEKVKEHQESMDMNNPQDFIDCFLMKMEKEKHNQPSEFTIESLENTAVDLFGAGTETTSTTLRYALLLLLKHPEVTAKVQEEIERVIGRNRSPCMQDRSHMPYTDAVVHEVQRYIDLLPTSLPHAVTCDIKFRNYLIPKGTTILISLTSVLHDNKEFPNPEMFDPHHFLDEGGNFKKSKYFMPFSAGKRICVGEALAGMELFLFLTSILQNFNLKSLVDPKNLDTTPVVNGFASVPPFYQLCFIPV
Sequence of Cytochrome P450 2C19 (P33261 whole entry): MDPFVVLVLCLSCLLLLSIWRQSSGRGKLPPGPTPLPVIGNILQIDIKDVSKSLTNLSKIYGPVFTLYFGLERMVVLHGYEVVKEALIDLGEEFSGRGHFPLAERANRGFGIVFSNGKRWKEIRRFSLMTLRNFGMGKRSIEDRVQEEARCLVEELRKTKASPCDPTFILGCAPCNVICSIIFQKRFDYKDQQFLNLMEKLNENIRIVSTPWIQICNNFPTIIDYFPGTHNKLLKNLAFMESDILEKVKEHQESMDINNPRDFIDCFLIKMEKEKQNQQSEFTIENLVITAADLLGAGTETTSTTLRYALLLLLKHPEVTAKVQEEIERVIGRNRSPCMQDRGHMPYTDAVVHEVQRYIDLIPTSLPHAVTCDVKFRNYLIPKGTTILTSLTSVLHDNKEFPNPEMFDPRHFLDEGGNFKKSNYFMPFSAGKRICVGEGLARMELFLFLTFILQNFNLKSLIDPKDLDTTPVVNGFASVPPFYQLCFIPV
Sequence of Paired box protein Pax-8 (Q06710 whole entry): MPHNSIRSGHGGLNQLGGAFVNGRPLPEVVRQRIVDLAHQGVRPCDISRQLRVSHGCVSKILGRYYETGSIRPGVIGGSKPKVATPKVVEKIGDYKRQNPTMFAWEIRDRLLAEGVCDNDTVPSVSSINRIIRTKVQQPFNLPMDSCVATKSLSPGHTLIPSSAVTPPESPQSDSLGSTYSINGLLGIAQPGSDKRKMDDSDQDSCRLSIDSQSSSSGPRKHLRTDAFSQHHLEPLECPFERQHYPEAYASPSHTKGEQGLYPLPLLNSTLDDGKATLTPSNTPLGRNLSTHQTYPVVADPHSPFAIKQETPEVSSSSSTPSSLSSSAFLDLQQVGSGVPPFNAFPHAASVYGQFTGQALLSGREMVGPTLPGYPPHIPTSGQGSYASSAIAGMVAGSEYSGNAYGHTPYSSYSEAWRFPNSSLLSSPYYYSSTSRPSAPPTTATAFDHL
Sequence of Cytochrome P450 2D6 (P10635 whole entry): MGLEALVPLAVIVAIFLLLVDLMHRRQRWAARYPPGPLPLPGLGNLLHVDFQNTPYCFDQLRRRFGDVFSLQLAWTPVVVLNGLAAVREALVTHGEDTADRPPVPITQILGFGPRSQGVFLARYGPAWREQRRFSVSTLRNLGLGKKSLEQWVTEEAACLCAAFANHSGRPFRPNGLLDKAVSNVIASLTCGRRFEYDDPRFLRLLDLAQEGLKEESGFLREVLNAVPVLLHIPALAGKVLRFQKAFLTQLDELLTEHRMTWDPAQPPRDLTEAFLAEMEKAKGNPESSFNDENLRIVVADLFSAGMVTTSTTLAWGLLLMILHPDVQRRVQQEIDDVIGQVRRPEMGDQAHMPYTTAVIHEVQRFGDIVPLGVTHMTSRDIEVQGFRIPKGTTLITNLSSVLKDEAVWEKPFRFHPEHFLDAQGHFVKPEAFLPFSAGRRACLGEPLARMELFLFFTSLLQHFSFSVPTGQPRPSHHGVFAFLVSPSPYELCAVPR

CCCc1nc(SCC(=O)N2CCCc3ccccc32)c2c(=O)n(C)c(=O)n(C)c2n1
IC50 [1]: 16.7 µM (not active)

CCn1nc(C(=O)OCC(=O)N2c3ccccc3CC2C)c2ccccc2c1=O (stereo not drawn)
IC50 [1]: 29.2 µM (not active)

Cc1cc(C(F)(F)F)n2ncc(-c3ccc(F)cc3)c2n1
IC50 [2]: > 100 µM (inactive)

Cn1nnnc1SCC(=O)NC1CCCCC1
IC50 [1]: < 0.4 µM (not active)

Cc1ccc(-c2noc(C3CCCN(C(=O)c4ccc(C(C)(C)C)cc4)C3)n2)o1 (stereo not drawn)
CC50 [3]: > 40 µM (active)

Cc1ccc(S(=O)(=O)n2ccc3c(OCCOCCNCc4ccc(F)cc4)cccc32)cc1
EC50 [4]: 0.226 µM (active)
CC50 [3]: 13.3 µM (active)
EC50 [5]: > 30 µM (not active)

O=C(NC1CCCCC1)C(c1ccc2ncccc2c1)N(Cc1ccco1)C(=O)c1ccc2c(c1)OCCO2 (stereo not drawn)
IC50 [6]: 12.6 µM (active)
CC50 [3]: > 40 µM (active)

Cc1cc(C(C)(C)C)cc(C)c1C[n+]1c2n(c3ccc(C(F)(F)F)cc31)CCCCC2
AC50 [7]: 4.37 µM (active)
AC50 [8]: 3.43 µM (active)
AC50 [9]: 7.55 µM (active)

COc1ccc(N2CCN(c3nc(NC(C)(C)C)nc(N4CCCCC4)n3)CC2)cc1
IC50 [1]: 24.4 µM (not active)

FC(F)(F)c1cccc(NCc2nnc(S)n2C2CCCCC2)c1
IC50 [1]: 27.8 µM (not active)

CC1(C)Cc2c(sc(NC(=O)c3ccc4ncsc4c3)c2C(N)=O)C(C)(C)N1
EC50 [10]: > 195 µM (not active)
AC50 [9]: 10.1 µM (active)

Cc1c(C)n(C)c2ccc(C(=O)Nc3cccc4ccccc34)cc12
AC50 [11]: inconclusive
AC50 [12]: 11.2 µM (inconclusive)

CCOc1cc(C)c(S(=O)(=O)NC2CCCCC2)cc1C
EC50 [10]: > 195 µM (not active)
IC50 [1]: > 50 µM (not active)

O=C(CN1CCC(n2nnc3cc(C(F)(F)F)ccc32)CC1)NCc1cccs1
CC50 [3]: > 40 µM (active)

CCOC(=O)C1=NOC(CNC(=O)C2=NOC(CNC(=O)c3c(-c4ccccc4Cl)noc3C)C2)C1 (stereo not drawn)
AC50 [11]: inconclusive
AC50 [13]: 20 µM (inconclusive)

COc1ccc(CNC(=O)C2CC(c3cccc([N+](=O)[O-])c3)=NO2)cc1 (stereo not drawn)
AC50 [11]: inconclusive

CCOc1ccc(-n2c(O)nnc2SCC(=O)Nc2ccccc2C)cc1
AC50 [11]: inconclusive

O=C(c1cccc(F)c1)N1CCN(c2cccc(C(F)(F)F)c2)CC1
IC50 [2]: > 100 µM (inactive)

C=CCSc1nc(NC)c2sccc2n1
AC50 [11]: inconclusive

Cc1cc2c(C(F)(F)F)cc(=O)oc2c2c1NCCC2
EC50 [14]: 1.12 µM (active)
AC50 [11]: inconclusive
AC50 [13]: 1.26 µM (inconclusive)

CCOc1ccc(Oc2ccc(-c3nnc(-c4ccccc4)o3)cc2[N+](=O)[O-])cc1
IC50 [1]: 4.33 µM (not active)

O=C1c2ccccc2C(=O)N1CCc1nc(-c2ccc(Cl)cc2)no1
IC50 [2]: 94.6 µM (inactive)

CCN(CC)C(=O)c1cc([N+](=O)[O-])cc2c1-c1ccc([N+](=O)[O-])cc1C2=C(C#N)C#N
AC50 [8]: 6.32 µM (active)
CC50 [3]: > 40 µM (active)

Cc1cc(F)ccc1S(=O)(=O)N1CCCOC1CNC(=O)C(=O)NCc1ccc2c(c1)OCO2 (stereo not drawn)
IC50 [2]: > 100 µM (inactive)

c1ccc(-n2nnc(-c3nccs3)n2)cc1
IC50 [2]: 88.2 µM (inactive)

CCOc1ccc(NC(=O)CCN2CCN(C)CC2)cc1
IC50 [2]: > 100 µM (inactive)

COc1ccccc1CNC(=O)C1CCN(S(=O)(=O)N2CC(C)CC(C)C2)CC1 (stereo not drawn)
AC50 [11]: inconclusive
AC50 [13]: 39.8 µM (inconclusive)

COCCn1c(SCC(=O)Nc2cccc(C)c2)nnc1C(C)C
IC50 [2]: > 100 µM (inactive)

C/C(=N\NC(=N)SC1CC(=O)N(c2ccc(Cl)cc2)C1=O)c1cccs1 (stereo not drawn)
CC50 [3]: > 40 µM (active)

COc1cc2c(c(OC)c1OC)-c1ccc(OC)c(=O)cc1C(NC(C)=O)CC2 (stereo not drawn)
EC50 [15]: 0.348 µM (active)
AC50 [7]: < 0.26 µM (active)
EC50 [16]: 0.351 µM (active)
EC50 [17]: 0.627 µM (inconclusive)
AC50 [9]: 0.056 µM (active)
EC50 [18]: 0.249 µM (active)
